The nature of series [1]: Isomerization to the previtamin in the complexing with cyclodextrins (HPLC). Type of series: physicochemical. Here is the method: It is stirred for 2 hours at 22° C. and for 2 hours at 0° C. The solid is suctioned off and washed with 5 ml of cold water. After drying, 1.73 g (90% of theory) is obtained as a white solid. After HPLC (Stat. phase Chiracel JHRH 150×4.6 mm ID, detection 244 nm, eluant water/acetonitrile, flow: 1 ml/minute, gradient t0=70+30 v/v, linear increase of the gradient over 10 minutes t10 min to 60+40 v/v, isocratic t10 min-30 min 60+40 v/v), the solid, in addition to ergocalciferol (tRet.=26 minutes), contains 24% of the previtamin form (tRet.=23 minutes).
10 mg (0.024 mmol, MW 416.65) of calcitriol (dissolved in 100 μl of ethanol) is added in drops to the clear solution over 10 minutes. It is stirred for 2 hours at 22° C. and for 2 hours at 0-3° C., the solid is filtered off, and it is washed 2 times with 100 μl each of cold water. After drying at 20° C. and 0.5 mbar (24 hours), 26.6 mg of calcitriol-β-CD complex (71.5% of theory) is obtained. After the solid is dissolved in methanol and after an HPLC study (Stat. Phase Chiracel JHRH 150×4.6 mm ID, detection 244 nm, eluant water/acetonitrile, flow: 1 ml/minute, gradient t0=70+30 v/v, linear increase of the gradient over 10 minutes t10 min to 60+40 v/v, isocratic t10 min-30 min 60+40 v/v), the solid contains 23% of the previtamin form (tRet.=12 minutes) in addition to calcitriol (tRet.=17 minutes).
At 25° C., 100 mg (0.21 mmol) of (thiazol-2-yl)-26,27-dinor-9,10-secocholesta-5,7,10(19)-triene-1,3,25-triol (dissolved in 0.5 ml of ethanol) is added. It is stirred for 2 hours at room temperature, then for 2 hours at 0° C. The solid is filtered off, washed with 1 ml of cold water and dried. 290 mg (85% of theory) of solid is obtained. The content of the solid in the previtamin (compound 2) is 20% (HPLC, Stat. Phase Chiracel JHRH 150×4.6 mm ID, detection 244 nm, eluant water/acetonitrile, flow: 1 ml/minute, gradient to =70+30 v/v, linear increase of the gradient over 10 minutes t10 min to 60+40 v/v, isocratic t10 min-30 min 60+40 v/v, tRef. Compound 2: 11.65 minutes, tRef. Compound 1: 18.19 minutes). The sample preparation is carried out by dissolving the complex in 100% methanol.
For analytical study, the complexes can be dissolved in methanol or DMF and can be used in these solutions for the HPLC analysis (see 2.1). The content of the complexes that are obtained can be determined in comparison to the pure substance.

Series [2] in a line: Storage of compound 1 at room temperature. Type of series: physicochemical. The following applies: after four months at room temperature.
Series [3] can be described thus: Stability of the DIMEB complex from Example 3 a) 1 and the non-complexed active ingredient. Type of series: physicochemical. The source says: In Table 4 below, the stabilities of the DIMEB complex from Example 3 a) 1. and the non-complexed active ingredient are compiled: […]
The conditions of series [4]: cited from earlier work.
The conditions of series [5]: cited from earlier work. The source holds these as a separate data set.
A short description of series [6]: Cyclodextrin solubility in water. Type of series: physicochemical.
[7] abbreviates: Exp. 10: 15 d/40° C. aqueous, 80 μg of DIMEB complex per ml, compound 1 20 μg per ml.
Where [8] appears, read: Exp. 11: 15 d/60° C. aqueous, 80 μg of DIMEB complex per ml, compound 1 20 μg per ml.
Setting [9] is: Exp. 12: 15 d/80° C. aqueous, 80 μg of DIMEB complex per ml, compound 1 20 μg per ml.
Setting [10] is: Exp. 13: 30 d/40° C. aqueous, 80 μg of DIMEB complex per ml, compound 1 20 μg per ml.
The mark [11] stands for this setting: Exp. 14: 30 d/60° C. aqueous, 80 μg of DIMEB complex per ml, compound 1 20 μg per ml.

Marks after values point to notes of the source that are not given here. Where only a bound is given, the exact number is not on record here.

For `C=C1/C(=C\C=C2/CCC[C@]3(C)[C@@H]([C@H](C)CCCC(C)(C)O)CC[C@@H]23)C[C@@H](O)C[C@@H]1O` [Calcitriol, (5Z,7E)-(1S,3R)-9,10-secocholesta-5,7,10(19)-triene-1,3,25-triol], the “previtamin formation / isomerization (in words)” value in series [1] is “do not show any significant previtamin formation”. Further, the “% Previtamin (in Solution)” value in series [1] (Table 1, without cyclodextrin) turned out to be 0.3%.

For `C=C1/C(=C\C=C2/CCC[C@]3(C)[C@@H]([C@H](C)CCC[C@H](O)c4nccs4)CC[C@@H]23)C[C@@H](O)C[C@@H]1O` [Compound 1, (thiazol-2-yl)-26,27-dinor-9,10-secocholesta-5,7,10(19)-triene-1,3,25-triol], in series [2], the previtamin content entry was “about 2%”. The same compound yielded a content in series [2] (in comparison to fresh samples or samples stored under inert conditions) of 60%. Moreover, the “% Previtamin (in Solution)” value in series [1] (Table 2, compound 1 without CD) is recorded as 0.2 (in %. Further, the “% Previtamin” value in series [1] (Table 3, compound 1 without CD) stood at 0.3%. Besides, the By-Products in series [3] (Exp. 2: 30 d 40° C.) worked out at 3.08%; in series [3] (Exp. 3: 3 d/80° C./75% rel F.), 77.45%; in series [3] (Exp. 4: 7 d/80° C./75% rel F.), 95.34%; in series [3] (Exp. 5: 15 d/40° C./75% rel F.), 2.9%; in series [3] (Exp. 6: 15 d/60° C./75% rel F.), 2.96%; in series [3] (Exp. 7: 15 d/80° C./75% rel F.), 100%. Besides, the By-Products is 3.00% in series [3] (Exp. 8: 30 d/40° C./75% rel F.); 2.98% in series [3] (Exp. 9: 30 d/60° C./75% rel F.); 2.92** % in series [3] (setting [7]); 18.69** % in series [3] (setting [8]); 96.72** % in series [3] (setting [9]); 3.20** % in series [3] (setting [10]). In addition, the By-Products in series [3] (setting [11]) is 37.26** %; in series [3] (Start), 3%. The Purity is listed as 96.08% in series [3] (Exp. 2: 30 d 40° C.); 22.55% in series [3] (Exp. 3: 3 d/80° C./75% rel F.); 4.66% in series [3] (Exp. 4: 7 d/80° C./75% rel F.); 96.61% in series [3] (Exp. 5: 15 d/40° C./75% rel F.); 96.34% in series [3] (Exp. 6: 15 d/60° C./75% rel F.); 0% in series [3] (Exp. 7: 15 d/80° C./75% rel F.). For the same compound, the Purity in series [3] (Exp. 8: 30 d/40° C./75% rel F.) is given as 96.7%; in series [3] (Exp. 9: 30 d/60° C./75% rel F.), 96.23%; in series [3] (setting [7]) it was 92.78%; in series [3] (setting [8]) it was 77.12%; in series [3] (setting [9]), 3.28%; in series [3] (setting [10]), 91.96%. Also, the Purity in series [3] (setting [11]) is reported as 59.76%; in series [3] (Start), 96.12%.

With `COC[C@H]1O[C@@H]2O[C@H]3[C@H](O)[C@@H](OC)[C@@H](O[C@H]4[C@H](O)[C@@H](OC)[C@@H](O[C@H]5[C@H](O)[C@@H](OC)[C@@H](O[C@H]6[C@H](O)[C@@H](OC)[C@@H](O[C@H]7[C@H](O)[C@@H](OC)[C@@H](O[C@H]8[C@H](O)[C@@H](OC)[C@@H](O[C@H]1[C@H](O)[C@H]2OC)O[C@@H]8COC)O[C@@H]7COC)O[C@@H]6COC)O[C@@H]5COC)O[C@@H]4COC)O[C@@H]3COC` [DIMEB, Heptakis-(2,6-di-O-methyl)-β-cyclodextrin], in series [4] (Saenger et al. 2002, Uekama, Irie 1987), the “solubility of the DIMEB” value was 60 g/100 ml of water. The solubility in water in series [4] (at 20° C., Saenger et al. 2002) is given as > 50 g/100 ml of water. The “solubility in water while being heated” value in series [4] (while being heated, Saenger et al. 2002) was < 1 g/100 ml. In addition, the “effects in intravenous administration” value in series [5] is on record as “hemolytic effects”. The “CD-Water Solubility (g/100 ml), (25° C.)” value in series [6] came to 25 g/100 ml.

In the case of `C=C1CC[C@H](O)C/C1=C/C=C1\CCC[C@]2(C)[C@@H]([C@H](C)/C=C/[C@H](C)C(C)C)CC[C@@H]12` [Ergocalciferol, (5Z,7E,22E)-(3S)-9,10-secoergosta-5,7,10(19),22-tetraen-3-ol], the “previtamin formation / isomerization (in words)” value in series [1] is reported as “do not show any significant previtamin formation”. The “% Previtamin (in Solution)” value in series [1] (Table 1, without cyclodextrin) is 0.2%.

For `COC[C@H]1O[C@@H]2O[C@H]3[C@H](OC)[C@@H](OC)[C@@H](O[C@H]4[C@H](OC)[C@@H](OC)[C@@H](O[C@H]5[C@H](OC)[C@@H](OC)[C@@H](O[C@H]6[C@H](OC)[C@@H](OC)[C@@H](O[C@H]7[C@H](OC)[C@@H](OC)[C@@H](O[C@H]8[C@H](OC)[C@@H](OC)[C@@H](O[C@H]1[C@H](OC)[C@H]2OC)O[C@@H]8COC)O[C@@H]7COC)O[C@@H]6COC)O[C@@H]5COC)O[C@@H]4COC)O[C@@H]3COC` [TRIMEB], the “CD-Water Solubility (g/100 ml), (25° C.)” value in series [6] came to 200 g/100 ml.

Take `OC[C@H]1O[C@@H]2O[C@H]3[C@H](O)[C@@H](O)[C@@H](O[C@H]4[C@H](O)[C@@H](O)[C@@H](O[C@H]5[C@H](O)[C@@H](O)[C@@H](O[C@H]6[C@H](O)[C@@H](O)[C@@H](O[C@H]7[C@H](O)[C@@H](O)[C@@H](O[C@H]8[C@H](O)[C@@H](O)[C@@H](O[C@H]9[C@H](O)[C@@H](O)[C@@H](O[C@H]1[C@H](O)[C@H]2O)O[C@@H]9CO)O[C@@H]8CO)O[C@@H]7CO)O[C@@H]6CO)O[C@@H]5CO)O[C@@H]4CO)O[C@@H]3CO` [γ-Cyclodextrin, γ-cyclodextrin]: in series [4] (20° C., source Szejtly 1988), the “Cyclodextrin Solubility in Water (20° C.)” value is 23.3 g/100 ml.

(Values after patent US20070093448A1, “Complexes that consist of vitamin D compounds or analogs thereof with a 5Z,7E,10(19)-triene system and methylated derivatives of beta-cyclodextrin” (priority 2005, published 2007).)
